Several values for one entry are separate records, joined by “and”; a condition that tells them apart may be missing. Identical values can stand only once. Inconclusive results and toxic doses are left out.

Drawing on PubChem BioAssay AID248 (DTP/NCI, 2004), this text covers T/C for 14 compounds.

This test relates to L1210 leukemia ip in BDF1 mice, survival T/C. In words: NCI In Vivo Anticancer Drug Screen. Data for tumor model L1210 Leukemia (intraperitoneal) in B6D2F1 (BDF1) mice. The settings on record: endpoint: mean survival time, higher = longer survival. Summed up:
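Each compound was tested against a transplantable tumor grown in mice. The endpoint was survival, with treated animals benchmarked against vehicle controls as a simple ratio.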

Where [1] appears, read: dose: 100.0 mg/kg/injection, schedule: Q01DX001 (ip), vehicle: carboxymethylcellulose (CMC).
Setting [2] is: dose: 100.0 mg/kg/injection, schedule: Q01DX009 (ip), vehicle: carboxymethylcellulose (CMC).
[3] abbreviates: dose: 200.0 mg/kg/injection, schedule: Q01DX001 (ip), vehicle: carboxymethylcellulose (CMC).
The mark [4] stands for this setting: dose: 400.0 mg/kg/injection, schedule: Q01DX001 (ip), vehicle: carboxymethylcellulose (CMC).
Where [5] appears, read: dose: 100.0 mg/kg/injection, schedule: Q04DX003 (ip), vehicle: saline with Tween-80.
[6] abbreviates: dose: 200.0 mg/kg/injection, schedule: Q04DX003 (ip), vehicle: saline with Tween-80.
Setting [7] is: dose: 100.0 mg/kg/injection, schedule: Q01DX001 (ip), vehicle: saline with Tween-80.
Where [8] appears, read: dose: 200.0 mg/kg/injection, schedule: Q01DX001 (ip), vehicle: saline with Tween-80.
The mark [9] stands for this setting: dose: 400.0 mg/kg/injection, schedule: Q01DX001 (ip), vehicle: saline with Tween-80.
Setting [10] is: dose: 100.0 mg/kg/injection, schedule: Q01DX009 (ip), vehicle: Klucel (hydroxypropylcellulose) (HPC).
Where [11] appears, read: dose: 200.0 mg/kg/injection, schedule: Q01DX009 (ip), vehicle: Klucel (hydroxypropylcellulose) (HPC).
[12] abbreviates: dose: 100.0 mg/kg/injection, schedule: Q04DX003 (ip), vehicle: Klucel (hydroxypropylcellulose) (HPC).
Where [13] appears, read: dose: 200.0 mg/kg/injection, schedule: Q04DX003 (ip), vehicle: Klucel (hydroxypropylcellulose) (HPC).
[14] abbreviates: dose: 400.0 mg/kg/injection, schedule: Q04DX003 (ip), vehicle: Klucel (hydroxypropylcellulose) (HPC).

`NC(=O)c1ccccc1NC(=O)Nc1ccc(F)cc1`: the T/C under setting [1] was 104 % of control; the T/C under setting [2] was 102 % of control and 105 % of control; the T/C (dose: 100.0 mg/kg/injection, schedule: Q04DX002 (ip), vehicle: carboxymethylcellulose (CMC)) was 100 % of control and 101 % of control; the T/C (dose: 100.0 mg/kg/injection, schedule: Q04DX003 (ip), vehicle: carboxymethylcellulose (CMC)) was 95 % of control; the T/C under setting [3] was 101 % of control; the T/C (dose: 200.0 mg/kg/injection, schedule: Q01DX009 (ip), vehicle: carboxymethylcellulose (CMC)) was 98 % of control and 105 % of control. Besides, the T/C by setting is: (dose: 200.0 mg/kg/injection, schedule: Q04DX002 (ip), vehicle: carboxymethylcellulose (CMC)) 101 % of control and 107 % of control; (dose: 200.0 mg/kg/injection, schedule: Q04DX003 (ip), vehicle: carboxymethylcellulose (CMC)) 102 % of control; under setting [4], 93 % of control; (dose: 400.0 mg/kg/injection, schedule: Q01DX009 (ip), vehicle: carboxymethylcellulose (CMC)) 94 % of control and 102 % of control; (dose: 400.0 mg/kg/injection, schedule: Q04DX002 (ip), vehicle: carboxymethylcellulose (CMC)) 93 % of control and 96 % of control; (dose: 400.0 mg/kg/injection, schedule: Q04DX003 (ip), vehicle: carboxymethylcellulose (CMC)) 91 % of control.

For the compound `O=C(COc1ccc(Cl)cc1C(=O)O)Nc1cccc(NC(=O)Nc2ccc(S(=O)(=O)F)cc2)c1`, the T/C was 91 % of control (dose: 100.0 mg/kg/injection, schedule: Q01DX001 (ip), vehicle: Klucel (hydroxypropylcellulose) (HPC)); 101 % of control (dose: 200.0 mg/kg/injection, schedule: Q01DX001 (ip), vehicle: Klucel (hydroxypropylcellulose) (HPC)); 93 % of control (dose: 400.0 mg/kg/injection, schedule: Q01DX001 (ip), vehicle: Klucel (hydroxypropylcellulose) (HPC)).

For `O=C1CSC(=S)N1c1ccc(Cl)c(Cl)c1`, the T/C (dose: 50.0 mg/kg/injection, schedule: Q04DX003 (ip), vehicle: saline with Tween-80) is 96 % of control; the T/C under setting [5] was 101 % of control; the T/C under setting [6] is 104 % of control.

With `O=C(/C=C\C(=O)Nc1ccc(C2=NCCN2)cc1)Nc1ccc(C2=NCCN2)cc1`, the T/C by setting is: (dose: 15.0 mg/kg/injection, schedule: Q01DX Z (ip), vehicle: saline) 124 % of control; (dose: 30.0 mg/kg/injection, schedule: Q01DX Z (ip), vehicle: saline) 177 % of control; (dose: 30.0 mg/kg/injection, schedule: Q01DX Z (oral), vehicle: saline) 103 % of control; (dose: 60.0 mg/kg/injection, schedule: Q01DX Z (ip), vehicle: saline) 170 % of control; (dose: 60.0 mg/kg/injection, schedule: Q01DX Z (oral), vehicle: saline) 114 % of control; (dose: 120.0 mg/kg/injection, schedule: Q01DX Z (oral), vehicle: saline) 103 % of control. Further, where the note is “dose: 240.0 mg/kg/injection, schedule: Q01DX Z (oral), vehicle: saline”, the T/C was 102 % of control.

`Cc1ccc(Cl)cc1NC(=O)Nc1ccc(N(C)C)cc1`: the T/C reads like this: under setting [7], 92 % of control; (dose: 100.0 mg/kg/injection, schedule: Q01DX009 (ip), vehicle: saline with Tween-80) 87 % of control and 90 % of control; (dose: 100.0 mg/kg/injection, schedule: Q04DX002 (ip), vehicle: saline with Tween-80) 95 % of control and 90 % of control; under setting [5], 92 % of control; under setting [8], 87 % of control; (dose: 200.0 mg/kg/injection, schedule: Q01DX009 (ip), vehicle: saline with Tween-80) 89 % of control and 90 % of control. Besides, the T/C runs as follows: (dose: 200.0 mg/kg/injection, schedule: Q04DX002 (ip), vehicle: saline with Tween-80) 98 % of control and 87 % of control; under setting [6], 92 % of control; under setting [9], 87 % of control; (dose: 400.0 mg/kg/injection, schedule: Q01DX009 (ip), vehicle: saline with Tween-80) 97 % of control and 91 % of control; (dose: 400.0 mg/kg/injection, schedule: Q04DX002 (ip), vehicle: saline with Tween-80) 87 % of control; (dose: 400.0 mg/kg/injection, schedule: Q04DX003 (ip), vehicle: saline with Tween-80) 89 % of control.

For `COc1cccc(NC(=S)N2CCCCC2)c1`, the T/C is, setting by setting: under setting [10], 108 % of control; under setting [11], 116 % of control; (dose: 400.0 mg/kg/injection, schedule: Q01DX009 (ip), vehicle: Klucel (hydroxypropylcellulose) (HPC)) 102 % of control.

As for `O=C(O)C(Br)CN1C(=O)c2ccccc2C1=O` (stereo not given), the T/C (dose: 50.0 mg/kg/injection, schedule: Q01DX009 (ip), vehicle: saline) is 91 % of control; the T/C (dose: 100.0 mg/kg/injection, schedule: Q01DX009 (ip), vehicle: saline) was 95 % of control; the T/C (dose: 200.0 mg/kg/injection, schedule: Q01DX009 (ip), vehicle: saline) was 91 % of control.

For the compound `COc1ccc(CCN=c2c3ccccc3ccc3ccccc23)cc1OC`, the T/C is 111 % of control (dose: 100.0 mg/kg/injection, schedule: Q04DX003 (ip), vehicle: saline); 97 % of control (dose: 200.0 mg/kg/injection, schedule: Q04DX003 (ip), vehicle: saline); 105 % of control (dose: 400.0 mg/kg/injection, schedule: Q04DX003 (ip), vehicle: saline).

`CCCCCCCC(=O)NN`: the T/C (dose: 25.0 mg/kg/injection, schedule: Q01DX009 (ip), vehicle: other) is 104 % of control; the T/C (dose: 50.0 mg/kg/injection, schedule: Q01DX009 (ip), vehicle: carboxymethylcellulose (CMC)) is 89 % of control; the T/C (dose: 50.0 mg/kg/injection, schedule: Q01DX009 (ip), vehicle: other) is 93 % of control; the T/C under setting [1] is 117 % of control; the T/C under setting [2] was 86 % of control; the T/C (dose: 100.0 mg/kg/injection, schedule: Q01DX009 (ip), vehicle: other) is 98 % of control. In addition, the T/C under setting [3] was 97 % of control; the T/C (dose: 200.0 mg/kg/injection, schedule: Q01DX009 (ip), vehicle: other) was 107 % of control; the T/C under setting [4] was 95 % of control; the T/C (dose: 400.0 mg/kg/injection, schedule: Q01DX009 (ip), vehicle: other) is 98 % of control.

`CSc1ccc(NC(=O)c2ccc([N+](=O)[O-])cc2)cc1`: the T/C by setting is: (dose: 100.0 mg/kg/injection, schedule: Q04DX002 (ip), vehicle: Klucel (hydroxypropylcellulose) (HPC)) 95 % of control; (dose: 200.0 mg/kg/injection, schedule: Q04DX002 (ip), vehicle: Klucel (hydroxypropylcellulose) (HPC)) 95 % of control; (dose: 400.0 mg/kg/injection, schedule: Q04DX002 (ip), vehicle: Klucel (hydroxypropylcellulose) (HPC)) 92 % of control.

As to `CCc1nc2c(c(=O)[nH]1)C(c1ccc(Cl)cc1)C(C)(C)O2` (stereo not given), the T/C is 94 % of control (dose: 200.0 mg/kg/injection, schedule: Q04DX003 (ip), vehicle: acetone) and 105 % of control (dose: 400.0 mg/kg/injection, schedule: Q04DX003 (ip), vehicle: acetone).

For `O=C1CC(N2CC2)C(=O)N1c1ccccc1` (stereo not given), the T/C was 104 % of control under setting [10]; 105 % of control under setting [12]; 92 % of control under setting [11]; 113 % of control under setting [13]; 88 % of control under setting [14].

With `CC(C)(C)NC(=O)/C=C\C(=O)O`, the T/C (dose: 100.0 mg/kg/injection, schedule: Q01DX009 (ip), vehicle: gum acacia) was 98 % of control; the T/C under setting [12] was 103 % of control; the T/C (dose: 200.0 mg/kg/injection, schedule: Q01DX009 (ip), vehicle: gum acacia) was 95 % of control; the T/C under setting [13] was 105 % of control; the T/C (dose: 400.0 mg/kg/injection, schedule: Q01DX009 (ip), vehicle: gum acacia) was 90 % of control; the T/C under setting [14] was 92 % of control.

In the case of `CNS(=O)(=O)c1cccc(C(N)=S)c1`, the T/C under setting [7] is 105 % of control, the T/C under setting [8] was 100 % of control and the T/C under setting [9] is 100 % of control.
